{"source": "patent US20130310347A1", "about": "“MULTI-MODALITY MOLECULAR IMAGING HIGH-THROUGHPUT ASSAY FOR IDENTIFYING HEAT SHOCK PROTEIN 90 (HSP90) INHIBITORS” (The Board of Trustees of the Leland Stanford Junior …, priority 2012, published 2013)", "key": {"[1]": {"test_system": "1975, 2008, HT29 cells", "test": "3H-FLT cell uptake (mammalian thymidine kinase activities)", "format": "cell-based", "details": "48 h post treatment", "procedure": "FIG. 10D is a graph illustrating the effect of CP9 on mammalian thymidine kinase activities in 1975, 2008, HT29, and MEFs cells as determined by ^3H-FLT cell uptake studies 48 h post treatment. Results were expressed as mean counts per minute/μg protein/initial dose±S.E.M. *, p<0.05 vs. carrier control treated cells.\n(§1) To determine the specificity of CP9 in inhibition of glucose metabolism, normal MEF cells were used as a control.\n(§2) To determine the downstream effects of lead compounds on glucose metabolism, 1.5×10^5 293T, 1975 and 2008 and MEFs cells plated in 24-well plate for 24 h, prior to treatment with different concentrations of CP9 for 24 or 48 h and subsequent incubation with 1 μCi of ^3H-FDG in 500 μl of medium for 1 h at 37° C. Cells treated with 2.5 μM of PU-H71 served as a positive control. The total counts in each sample were normalized to that of the dose added to each well and to the amount of protein, and expressed as mean counts/dose/μg protein±S.E.M. Likewise, the effect of CP9 on cell proliferation was determined using 1 μCi of ^3H-FLT per well after 2 h of incubation at 37° C."}, "[2]": {"test": "18F-FDG uptake in the brains of mice", "format": "in vivo", "details": "CP9 treated mice; P>0.05 vs carrier", "procedure": "The ^18F-FDG uptake in the brains of mice using CT images to delineate boundaries was also analyzed. Relative to day 0, the maximum % ID/g of ^18F-FDG uptake was 114±11% in mice treated with carrier and 99±4% in mice treated with CP9. There was no statistical difference between the two groups (P>0.05)."}, "[3]": {"test_system": "normal MEFs", "test": "Alamar Blue cell proliferation", "format": "cell-based, mouse", "description": "(§3) CP9 had no effect on proliferation of normal MEFs. Since CP9 led to decrease in phosphorylated Akt (FIGS. 5A and 10A-10C), it was expected to inhibit glucose metabolism through relief of inhibition of glycogen synthase kinase […] (Nair & Olanow (2008) J. Biol. Chem. M707238200; Dandekar et al., (2007) J. Nucl. Med. 48: 602-607)."}, "[4]": {"test_system": "1975 cells", "test": "Alamar Blue cell proliferation", "format": "cell-based", "details": "1975, 24 h", "procedure": "(§4) FIG. 6A is a series of graphs illustrating the effect of CP9 on cell proliferation determined by an Alamar Blue assay. The indicated cancer cell lines were treated with different concentrations of CP9 for 24 h prior to incubation with Alamar blue for 4 h. The Hsp90 inhibitors PU-H71 and 17AAG were used as positive controls. Emissions at 570 nm in CP9-treated cells were normalized to that of carrier control-treated cells. Results are expressed as normalized cell proliferation±S.E.M.\nas §3"}, "[5]": {"test_system": "normal MEF cells", "test": "3H-FDG cell uptake (glucose metabolism)", "format": "cell-based, mouse", "details": "24 h post treatment", "procedure": "FIG. 6B is a graph illustrating the effect of CP9 on glucose metabolism determined in 1975 lung cancer, 2008 ovarian cancer and HT29 colon cancer cells by ^3H-FDG cell uptake studies 24 h post treatment. Normal MEFs were used as a control. Results were expressed as mean counts/μg protein/initial dose±S.E.M. *, p<0.05 vs. carrier control treated cells.\nas §1, §2"}, "[6]": {"test_system": "U87-MG cells", "test": "Alamar Blue cell proliferation", "format": "cell-based, human", "details": "24 h", "procedure": "as §4, §3"}, "[7]": {"test_system": "cellular Hsp90", "test": "3H-17AAG uptake in intact HT29 cells", "format": "cell-based", "details": "CP9 0.4 to 12.5 μM, 3H-17AAG 0.5 μM, 1 h, dose-dependent, p<0.05", "procedure": "FIG. 5D is a graph illustrating the inhibition of ^3H-17AAG uptake by CP9 in HT29 cells. HT29 cells were pre-incubated with different concentrations of CP9 together with ^3H-17AAG (0.5 μM) for 1 h followed by 1 h of wash-out of unbound ^3H-17AAG in fresh medium. The amount of ^3H-17-AAG incorporated intracellularly was determined by scintillation counting of cell lysates, followed by normalization for protein content and to carrier control-treated cells. Cells incubated with 5 μM of PU-H71 served as a positive control. Results are expressed as means of triplicates±S.E.M. *, p<0.05 vs. carrier control-treated cells.\nTo confirm the direct binding of CP9 to Hsp90(α/β), an in vitro competitive binding assay using purified Hsp90α and Hsp90β was performed using radiolabeled Hsp90 inhibitor ^3H-17AAG. Hsp90 proteins were pre-bound with CP9 or cold 17-AAG as a control prior to incubation with ^3H-17AAG. Unbound ^3H-17AAG was removed and the amount of ^3H-17AAG bound to the Hsp90 proteins was determined. […]\nTo determine if CP9 binds to cellular Hsp90, an uptake study of ^3H-17AAG (Moravek Biochemicals, Brea, Calif.) was performed. […] The total counts in each sample were normalized to that of the dose added to each well and to the amount of protein, and expressed as mean counts/dose/μg protein±S.E.M."}}}
{"smiles": "Cc1cc(NC(=O)CSc2nc(-c3cccs3)cc(C(F)(F)F)n2)no1", "note": "[CP9, N-(5-methylisoxazol-3-yl)-2-(4-(thiophen-2-yl)-6-(trifluoromethyl)pyrimidin-2-ylthio)acetamide]", "values": [{"measurement": "3H-FLT uptake in cancer cell lines", "setting": "[1]", "value": "inhibits"}, {"measurement": "maximum % ID/g of 18F-FDG uptake in brain relative to day 0", "setting": "[2]", "value": "99±4", "unit": "%"}, {"measurement": "proliferation of normal MEFs", "setting": "[3]", "value": "no effect"}, {"measurement": "inhibition of cell proliferation vs PU-H71 and 17-AAG", "setting": "[4]", "value": "more effective than PU-H71 and 17-AAG"}, {"measurement": "3H-FDG uptake in MEFs", "setting": "[5]", "value": "without significantly affecting"}, {"measurement": "inhibition of cell proliferation vs PU-H71 and 17-AAG", "setting": "[6]", "value": "more effective than PU-H71 and 17-AAG"}, {"measurement": "maximum reduction in uptake of 3H-17AAG relative to carrier control", "setting": "[7]", "value": 30, "unit": "%"}]}
